Source: US20250243196A1, “CITRON KINASE INHIBITORS” (The Cleveland Clinic Foundation, priority 2021, published 2025)
pIC50: −log10 of the molar value.

Legend:
Assay type in all cases: biochemical
[1] = target: NEK1(h) (Homo sapiens (Human), UniProt Q96PY6); experiment: KinaseProfiler panel; parameters: dose or concentration left out as unconfirmed; conditions: activity remaining
[2] = target: HIPK4 (Homo sapiens (Human), UniProt Q8NE63); experiment: KinaseProfiler radiometric assay (15-003KP); conditions: mean of at least two independent experiments
From the text: In another aspect, disclosed is a method of inhibiting citron kinase in a sample, comprising contacting the sample with a compound described herein (e.g., a compound of formula (I) or a pharmaceutically acceptable salt thereof), or a pharmaceutical composition described herein (e.g., a pharmaceutical composition comprising a compound of formula (I) or a pharmaceutically acceptable salt thereof), in an amount effective to inhibit citron kinase. In some embodiments, the step of contacting the sample with the compound comprises administering the compound to a subject (e.g., a subject) suffering from cancer. Methods of determining kinase inhibition are well known in the art. For example, kinase activity of an enzyme and the inhibitory capacity of a test compound can be determined by measuring enzyme specific phosphorylation of a substrate. Commercial assays and kits can be employed. For example, kinase inhibition can be determined using a radiometric binding assay, such as using KinaseProfiler™ technology (Eurofins Discovery). This assay method directly detects product formation without the use of modified substrates or coupling enzymes. […]
The effect of various compounds on the inhibition of other kinases has also been determined. Table 2 reports measured IC50 values; value units are nanomolar inhibition.

[3] = target: WNK4(h) (Homo sapiens (Human), UniProt Q96J92); experiment: KinaseProfiler panel; parameters: dose or concentration left out as unconfirmed; conditions: activity remaining
[4] = target: cKit(h) (Homo sapiens (Human), UniProt P10721); experiment: KinaseProfiler panel; parameters: dose or concentration left out as unconfirmed; conditions: activity remaining
[5] = target: PKCε(h) (Homo sapiens (Human), UniProt Q02156); experiment: KinaseProfiler panel; parameters: dose or concentration left out as unconfirmed; conditions: activity remaining
[6] = target: PKAcβ(h) (Homo sapiens (Human), UniProt P22694); experiment: KinaseProfiler panel; parameters: dose or concentration left out as unconfirmed; conditions: activity remaining
[7] = target: PAK4(h) (Homo sapiens (Human), UniProt O96013); experiment: KinaseProfiler panel; parameters: dose or concentration left out as unconfirmed; conditions: activity remaining
[8] = target: NLK(h) (Homo sapiens (Human), UniProt Q9UBE8); experiment: KinaseProfiler panel; conditions: activity remaining
[9] = target: CDK1/cyclinB(h) (Homo sapiens (Human), UniProt P06493); experiment: KinaseProfiler panel; parameters: dose or concentration left out as unconfirmed; conditions: activity remaining
CDK1/cyclinB(h), sequence (P06493 whole entry): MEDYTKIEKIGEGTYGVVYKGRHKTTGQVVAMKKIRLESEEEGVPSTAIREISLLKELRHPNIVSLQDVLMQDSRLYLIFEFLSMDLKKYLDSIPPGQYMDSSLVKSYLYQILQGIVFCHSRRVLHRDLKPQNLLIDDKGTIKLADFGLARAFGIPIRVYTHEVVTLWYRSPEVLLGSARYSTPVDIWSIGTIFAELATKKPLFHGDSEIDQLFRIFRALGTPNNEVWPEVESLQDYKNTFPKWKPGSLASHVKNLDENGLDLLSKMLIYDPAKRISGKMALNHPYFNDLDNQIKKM
CDK1/cyclinB(h), sequence (P14635 whole entry partner): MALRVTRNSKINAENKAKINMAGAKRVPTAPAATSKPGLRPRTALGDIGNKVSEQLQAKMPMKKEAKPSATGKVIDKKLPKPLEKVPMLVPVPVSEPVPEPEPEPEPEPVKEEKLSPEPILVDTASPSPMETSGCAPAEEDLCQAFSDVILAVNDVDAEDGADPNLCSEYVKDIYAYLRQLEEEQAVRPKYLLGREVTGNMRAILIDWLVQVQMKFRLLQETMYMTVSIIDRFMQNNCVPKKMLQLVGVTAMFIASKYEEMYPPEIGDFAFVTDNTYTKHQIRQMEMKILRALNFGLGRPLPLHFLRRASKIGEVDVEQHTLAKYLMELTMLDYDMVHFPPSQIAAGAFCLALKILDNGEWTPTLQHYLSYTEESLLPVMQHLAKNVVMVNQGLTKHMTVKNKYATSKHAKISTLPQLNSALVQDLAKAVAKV

[10] = target: SNRK(h) (Homo sapiens (Human), UniProt Q9NRH2); experiment: KinaseProfiler panel; parameters: dose or concentration left out as unconfirmed; conditions: activity remaining
[11] = target: PKCβII(h) (Homo sapiens (Human), UniProt P05771); experiment: KinaseProfiler panel; parameters: dose or concentration left out as unconfirmed; conditions: activity remaining
[12] = target: Lck(h) activated (Homo sapiens (Human), UniProt P06239); experiment: KinaseProfiler panel; parameters: dose or concentration left out as unconfirmed; conditions: activity remaining
Lck(h) activated, sequence (P06239 whole entry): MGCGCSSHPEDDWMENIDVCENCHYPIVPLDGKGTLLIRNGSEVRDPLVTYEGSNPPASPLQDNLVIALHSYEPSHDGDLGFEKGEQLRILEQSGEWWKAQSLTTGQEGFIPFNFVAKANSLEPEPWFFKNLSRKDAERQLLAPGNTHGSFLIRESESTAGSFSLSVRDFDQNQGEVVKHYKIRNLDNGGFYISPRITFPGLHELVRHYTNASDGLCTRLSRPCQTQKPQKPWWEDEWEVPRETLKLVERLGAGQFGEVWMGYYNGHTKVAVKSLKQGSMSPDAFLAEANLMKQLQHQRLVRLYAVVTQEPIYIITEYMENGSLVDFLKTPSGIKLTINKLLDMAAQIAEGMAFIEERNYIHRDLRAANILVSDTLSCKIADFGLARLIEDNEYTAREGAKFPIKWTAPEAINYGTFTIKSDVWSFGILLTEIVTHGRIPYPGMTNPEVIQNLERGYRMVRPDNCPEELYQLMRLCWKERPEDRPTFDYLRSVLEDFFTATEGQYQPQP

[13] = target: IGF-1R(h), activated (Homo sapiens (Human), UniProt P08069); experiment: KinaseProfiler panel; parameters: dose or concentration left out as unconfirmed; conditions: activity remaining
[14] = target: PI3 Kinase (p110d/p85a)(h) (Homo sapiens (Human), UniProt O00329); experiment: KinaseProfiler panel; parameters: dose or concentration left out as unconfirmed; conditions: activity remaining
PI3 Kinase (p110d/p85a)(h), sequence (O00329 whole entry): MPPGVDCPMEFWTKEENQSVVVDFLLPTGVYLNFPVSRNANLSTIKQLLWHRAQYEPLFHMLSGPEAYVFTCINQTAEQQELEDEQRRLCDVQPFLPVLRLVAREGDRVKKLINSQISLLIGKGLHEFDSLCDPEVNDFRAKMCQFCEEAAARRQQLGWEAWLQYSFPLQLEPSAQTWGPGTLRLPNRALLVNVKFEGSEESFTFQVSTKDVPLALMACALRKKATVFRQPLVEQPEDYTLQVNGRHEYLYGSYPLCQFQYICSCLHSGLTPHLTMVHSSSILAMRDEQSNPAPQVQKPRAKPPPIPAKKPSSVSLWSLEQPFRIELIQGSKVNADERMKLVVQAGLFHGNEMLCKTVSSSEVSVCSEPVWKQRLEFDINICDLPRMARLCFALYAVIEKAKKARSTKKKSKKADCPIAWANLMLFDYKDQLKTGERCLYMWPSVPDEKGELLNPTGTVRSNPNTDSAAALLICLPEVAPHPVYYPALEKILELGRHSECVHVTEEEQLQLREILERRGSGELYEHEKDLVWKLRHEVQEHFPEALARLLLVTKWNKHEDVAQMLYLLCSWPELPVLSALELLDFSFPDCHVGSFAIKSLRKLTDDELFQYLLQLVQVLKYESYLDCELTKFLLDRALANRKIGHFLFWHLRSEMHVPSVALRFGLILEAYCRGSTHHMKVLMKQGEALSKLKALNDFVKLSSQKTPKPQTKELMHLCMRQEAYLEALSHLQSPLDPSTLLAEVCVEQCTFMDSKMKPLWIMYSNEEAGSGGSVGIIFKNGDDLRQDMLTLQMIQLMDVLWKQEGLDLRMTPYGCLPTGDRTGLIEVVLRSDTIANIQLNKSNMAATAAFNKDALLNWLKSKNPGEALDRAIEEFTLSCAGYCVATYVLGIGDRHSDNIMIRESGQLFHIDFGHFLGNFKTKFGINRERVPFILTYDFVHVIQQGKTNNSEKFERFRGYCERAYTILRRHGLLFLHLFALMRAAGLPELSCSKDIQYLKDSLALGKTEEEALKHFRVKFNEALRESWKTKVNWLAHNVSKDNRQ
PI3 Kinase (p110d/p85a)(h), sequence (P27986 whole entry partner): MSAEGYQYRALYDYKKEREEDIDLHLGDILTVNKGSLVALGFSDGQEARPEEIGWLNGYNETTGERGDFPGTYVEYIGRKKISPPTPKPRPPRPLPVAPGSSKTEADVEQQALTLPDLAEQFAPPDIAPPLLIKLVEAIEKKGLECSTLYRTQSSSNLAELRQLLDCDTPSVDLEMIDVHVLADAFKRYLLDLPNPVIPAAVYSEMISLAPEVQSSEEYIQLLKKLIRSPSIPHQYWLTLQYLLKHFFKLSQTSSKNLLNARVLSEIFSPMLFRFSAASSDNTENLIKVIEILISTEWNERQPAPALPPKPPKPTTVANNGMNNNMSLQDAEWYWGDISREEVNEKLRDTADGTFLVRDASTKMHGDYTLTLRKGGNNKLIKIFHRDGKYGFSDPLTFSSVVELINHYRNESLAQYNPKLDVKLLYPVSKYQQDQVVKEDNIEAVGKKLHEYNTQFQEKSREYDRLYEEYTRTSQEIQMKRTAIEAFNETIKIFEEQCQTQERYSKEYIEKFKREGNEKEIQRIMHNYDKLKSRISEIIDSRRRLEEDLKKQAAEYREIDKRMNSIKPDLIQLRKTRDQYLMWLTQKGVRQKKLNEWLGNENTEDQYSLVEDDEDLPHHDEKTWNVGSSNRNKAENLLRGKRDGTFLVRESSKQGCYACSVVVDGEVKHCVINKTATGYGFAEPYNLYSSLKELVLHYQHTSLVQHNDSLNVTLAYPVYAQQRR

[15] = target: SGK(h) (Homo sapiens (Human), UniProt O00141); experiment: KinaseProfiler panel; parameters: dose or concentration left out as unconfirmed; conditions: activity remaining
[16] = target: DDR1(h) (Homo sapiens (Human), UniProt Q08345); experiment: KinaseProfiler panel; parameters: dose or concentration left out as unconfirmed; conditions: activity remaining
[17] = target: IKKβ(h) (Homo sapiens (Human), UniProt O14920); experiment: KinaseProfiler panel; parameters: dose or concentration left out as unconfirmed; conditions: activity remaining
[18] = target: B-Raf(h) (Homo sapiens (Human), UniProt P15056); experiment: KinaseProfiler panel; parameters: dose or concentration left out as unconfirmed; conditions: activity remaining
B-Raf(h), sequence (P15056 whole entry): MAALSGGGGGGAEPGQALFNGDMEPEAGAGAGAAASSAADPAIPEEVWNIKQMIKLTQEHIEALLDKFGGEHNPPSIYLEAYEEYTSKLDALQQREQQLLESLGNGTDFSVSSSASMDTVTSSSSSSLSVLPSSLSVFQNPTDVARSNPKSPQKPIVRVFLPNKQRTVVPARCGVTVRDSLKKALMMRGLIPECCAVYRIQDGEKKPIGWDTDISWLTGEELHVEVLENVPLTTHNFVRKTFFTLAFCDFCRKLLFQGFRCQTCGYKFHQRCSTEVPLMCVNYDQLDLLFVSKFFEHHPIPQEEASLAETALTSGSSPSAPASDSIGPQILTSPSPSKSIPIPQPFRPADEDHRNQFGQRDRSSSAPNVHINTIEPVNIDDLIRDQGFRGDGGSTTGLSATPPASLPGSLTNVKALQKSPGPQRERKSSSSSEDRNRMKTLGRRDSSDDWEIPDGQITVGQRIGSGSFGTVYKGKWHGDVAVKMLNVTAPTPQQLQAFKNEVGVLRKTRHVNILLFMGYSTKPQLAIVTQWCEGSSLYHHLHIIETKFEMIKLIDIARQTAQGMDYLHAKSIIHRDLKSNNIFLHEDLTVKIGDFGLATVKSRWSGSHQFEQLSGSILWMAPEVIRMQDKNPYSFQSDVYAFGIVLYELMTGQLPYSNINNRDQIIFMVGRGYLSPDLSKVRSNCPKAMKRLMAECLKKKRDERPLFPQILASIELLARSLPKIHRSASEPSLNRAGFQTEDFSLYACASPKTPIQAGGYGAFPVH

[19] = target: WNK1(h) (Homo sapiens (Human), UniProt Q9H4A3); experiment: KinaseProfiler panel; parameters: dose or concentration left out as unconfirmed; conditions: activity remaining
[20] = target: PDHK4(h) (Homo sapiens (Human), UniProt Q16654); experiment: KinaseProfiler panel; parameters: dose or concentration left out as unconfirmed; conditions: activity remaining
PDHK4(h), sequence (Q16654 whole entry): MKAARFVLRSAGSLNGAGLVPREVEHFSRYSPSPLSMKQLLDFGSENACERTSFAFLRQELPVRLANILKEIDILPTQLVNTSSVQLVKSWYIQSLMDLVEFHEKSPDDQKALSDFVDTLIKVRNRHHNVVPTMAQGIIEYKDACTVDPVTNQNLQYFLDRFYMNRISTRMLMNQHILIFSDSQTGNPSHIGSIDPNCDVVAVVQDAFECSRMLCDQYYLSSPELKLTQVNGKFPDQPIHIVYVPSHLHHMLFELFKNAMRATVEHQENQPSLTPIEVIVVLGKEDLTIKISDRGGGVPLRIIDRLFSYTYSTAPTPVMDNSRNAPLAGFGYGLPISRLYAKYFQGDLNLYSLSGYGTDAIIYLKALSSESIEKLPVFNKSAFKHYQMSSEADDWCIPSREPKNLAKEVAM

[21] = target: MAP4K5(h) (Homo sapiens (Human), UniProt Q9Y4K4); experiment: KinaseProfiler panel; parameters: dose or concentration left out as unconfirmed; conditions: activity remaining
MAP4K5(h), sequence (Q9Y4K4 whole entry): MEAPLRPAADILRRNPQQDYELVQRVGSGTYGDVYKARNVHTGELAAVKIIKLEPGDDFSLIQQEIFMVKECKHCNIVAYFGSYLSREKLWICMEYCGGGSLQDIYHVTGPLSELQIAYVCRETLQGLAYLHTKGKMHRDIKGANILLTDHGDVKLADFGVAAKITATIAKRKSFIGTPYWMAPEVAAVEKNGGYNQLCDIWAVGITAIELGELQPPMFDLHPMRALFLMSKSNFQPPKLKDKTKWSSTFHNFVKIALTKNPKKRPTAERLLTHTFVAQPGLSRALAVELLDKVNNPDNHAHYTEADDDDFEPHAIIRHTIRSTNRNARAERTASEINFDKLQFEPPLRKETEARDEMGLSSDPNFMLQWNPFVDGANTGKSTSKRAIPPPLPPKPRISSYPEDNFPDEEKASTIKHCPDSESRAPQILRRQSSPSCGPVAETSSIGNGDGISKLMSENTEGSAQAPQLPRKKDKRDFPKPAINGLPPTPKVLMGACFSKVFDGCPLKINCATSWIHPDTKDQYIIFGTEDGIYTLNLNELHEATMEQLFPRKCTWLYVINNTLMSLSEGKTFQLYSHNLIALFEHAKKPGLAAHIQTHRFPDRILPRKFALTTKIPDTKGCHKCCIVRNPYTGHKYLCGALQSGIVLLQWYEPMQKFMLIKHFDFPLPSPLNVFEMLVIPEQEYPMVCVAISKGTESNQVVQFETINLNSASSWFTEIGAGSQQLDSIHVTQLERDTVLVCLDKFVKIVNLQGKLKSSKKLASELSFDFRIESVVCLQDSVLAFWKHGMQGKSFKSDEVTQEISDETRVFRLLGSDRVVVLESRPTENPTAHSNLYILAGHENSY

[22] = target: DRAK1(h) (Homo sapiens (Human), UniProt Q9UEE5); experiment: KinaseProfiler panel; conditions: activity remaining
[23] = target: PKA(h) (Homo sapiens (Human), UniProt P17612); experiment: KinaseProfiler panel; parameters: dose or concentration left out as unconfirmed; conditions: activity remaining
[24] = target: PI3 Kinase (p110a/p85a)(h) (Homo sapiens (Human), UniProt P42336); experiment: KinaseProfiler panel; parameters: dose or concentration left out as unconfirmed; conditions: activity remaining
[25] = target: PAK3(h) (Homo sapiens (Human), UniProt O75914); experiment: KinaseProfiler panel; parameters: dose or concentration left out as unconfirmed; conditions: activity remaining
[26] = target: TGFBR2(h) (Homo sapiens (Human), UniProt P37173); experiment: KinaseProfiler panel; parameters: dose or concentration left out as unconfirmed; conditions: activity remaining

Cc1cc2c(-c3ccc(NC(=O)[C@H](N)CC(C)(C)C)cc3C)ccnc2[nH]1 [Compound F-90, (2R)-2-Amino-4,4-dimethyl-N-[3-methyl-4-(2-methyl-1H-pyrrolo[2,3-b]pyridin-4-yl)phenyl]pentanamide]
% Activity [1]: 94% | pIC50 [2]: 5.64 | % Activity [3]: 97% | % Activity [4]: 85% | % Activity [5]: 97% | % Activity [6]: 12% | % Activity [7]: 83% | % Activity [8]: 98% | % Activity [9]: 94% | % Activity [10]: 111% | % Activity [11]: 87% | % Activity [12]: 119% | % Activity [13]: 93% | % Activity [14]: 110% | % Activity [15]: 113% | % Activity [16]: 98% | % Activity [17]: 99% | % Activity [18]: 110% | % Activity [19]: 109% | % Activity [20]: 101% | % Activity [21]: 92% | % Activity [22]: 80% | % Activity [23]: 109% | % Activity [24]: 96% | % Activity [25]: 89% | % Activity [26]: 96%
